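Five concentrations, 48 hours, 96-well plates. Abbreviation: GI50, concentration required for 50% inhibition of growth. TGI: concentration producing complete growth inhibition.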
Assays:
Experiment in all cases: NCI-60 cell line screen, 48 h
786-0 renal = tested on: 786-0 renal
A498 renal = tested on: A498 renal
A549 NSCLC = tested on: A549 NSCLC
ACHN renal = tested on: ACHN renal
BT-549 breast = tested on: BT-549 breast
CAKI-1 renal = tested on: CAKI-1 renal
CCRF-CEM leukemia = tested on: CCRF-CEM leukemia
COLO 205 colon = tested on: COLO 205 colon
DU-145 prostate = tested on: DU-145 prostate
HCC-2998 colon = tested on: HCC-2998 colon
HCT-116 colon = tested on: HCT-116 colon
HCT-15 colon = tested on: HCT-15 colon
HOP-62 NSCLC = tested on: HOP-62 NSCLC
HOP-92 NSCLC = tested on: HOP-92 NSCLC
HS 578T breast = tested on: HS 578T breast
HT29 colon = tested on: HT29 colon
IGROV1 ovarian = tested on: IGROV1 ovarian
K-562 leukemia = tested on: K-562 leukemia
KM12 colon = tested on: KM12 colon
LOX IMVI melanoma = tested on: LOX IMVI melanoma
M14 melanoma = tested on: M14 melanoma
MALME-3M melanoma = tested on: MALME-3M melanoma
MCF7 breast = tested on: MCF7 breast
MDA-MB-231 breast = tested on: MDA-MB-231 breast
MDA-MB-435 = tested on: MDA-MB-435
MOLT-4 leukemia = tested on: MOLT-4 leukemia
NCI-H226 lung = tested on: NCI-H226 lung
NCI-H23 lung = tested on: NCI-H23 lung
NCI-H460 lung = tested on: NCI-H460 lung
NCI-H522 lung = tested on: NCI-H522 lung
NCI/ADR-RES ovarian = tested on: NCI/ADR-RES ovarian
OVCAR-3 ovarian = tested on: OVCAR-3 ovarian
OVCAR-4 ovarian = tested on: OVCAR-4 ovarian
OVCAR-5 ovarian = tested on: OVCAR-5 ovarian
OVCAR-8 ovarian = tested on: OVCAR-8 ovarian
PC-3 prostate = tested on: PC-3 prostate
RPMI-8226 leukemia = tested on: RPMI-8226 leukemia
RXF 393 renal = tested on: RXF 393 renal
SF-268 CNS = tested on: SF-268 CNS
SF-295 CNS = tested on: SF-295 CNS
SF-539 CNS = tested on: SF-539 CNS
SK-MEL-2 melanoma = tested on: SK-MEL-2 melanoma
SK-MEL-28 melanoma = tested on: SK-MEL-28 melanoma
SK-MEL-5 melanoma = tested on: SK-MEL-5 melanoma
SK-OV-3 ovarian = tested on: SK-OV-3 ovarian
SN12C renal = tested on: SN12C renal
SNB-19 CNS = tested on: SNB-19 CNS
SNB-75 CNS = tested on: SNB-75 CNS
SR leukemia = tested on: SR leukemia
SW-620 colon = tested on: SW-620 colon
T-47D breast = tested on: T-47D breast
TK-10 renal = tested on: TK-10 renal
U251 CNS = tested on: U251 CNS
UACC-257 melanoma = tested on: UACC-257 melanoma
UACC-62 melanoma = tested on: UACC-62 melanoma
UO-31 renal = tested on: UO-31 renal

For COc1ccc(/C=C/C(=O)c2cccc(B(O)O)c2)cc1O, the GI50 (786-0 renal) was 4.33 µM, the TGI (786-0 renal) was 40.8 µM and the GI50 (A498 renal) was 2.31 µM. For the same molecule, the TGI (A498 renal) was 11.2 µM, the GI50 (A549 NSCLC) was 3.35 µM and the TGI (A549 NSCLC) was 46.9 µM. The GI50 (ACHN renal) was 4.59 µM, the TGI (ACHN renal) was 71.1 µM and the GI50 (BT-549 breast) was 2.82 µM. It also gave a TGI (BT-549 breast) of 14.2 µM, a GI50 (CAKI-1 renal) of 3.43 µM and a TGI (CAKI-1 renal) of 19.3 µM. The GI50 (CCRF-CEM leukemia) was 3.13 µM, the TGI (CCRF-CEM leukemia) was 14.1 µM and the GI50 (COLO 205 colon) was 13 µM. For the same molecule, the TGI (COLO 205 colon) was 27.5 µM, the GI50 (DU-145 prostate) was 2.8 µM and the TGI (DU-145 prostate) was 7.88 µM. For the same molecule, the GI50 (HCC-2998 colon) was 2.67 µM, the TGI (HCC-2998 colon) was 7.47 µM and the GI50 (HCT-116 colon) was 2.55 µM. For the same molecule, the TGI (HCT-116 colon) was 10.7 µM, the GI50 (HCT-15 colon) was 2.44 µM and the TGI (HCT-15 colon) was 12.3 µM. It also gave a GI50 (HOP-62 NSCLC) of 4.24 µM, a TGI (HOP-62 NSCLC) of 18.6 µM and a GI50 (HOP-92 NSCLC) of 1.42 µM. It also gave a TGI (HOP-92 NSCLC) of 29.7 µM, a GI50 (HS 578T breast) of 2.28 µM and a TGI (HS 578T breast) of 8.87 µM. It also gave a GI50 (HT29 colon) of 9.77 µM, a TGI (HT29 colon) of 44.4 µM and a GI50 (IGROV1 ovarian) of 5.39 µM. It also gave a TGI (IGROV1 ovarian) of 33 µM, a GI50 (K-562 leukemia) of 1.33 µM and a TGI (K-562 leukemia) greater than 100 µM. For the same molecule, the GI50 (KM12 colon) was 2.51 µM, the TGI (KM12 colon) was 6.47 µM and the GI50 (LOX IMVI melanoma) was 2.07 µM. For the same molecule, the TGI (LOX IMVI melanoma) was 5.37 µM, the GI50 (M14 melanoma) was 4.23 µM and the TGI (M14 melanoma) was 18.6 µM. The GI50 (MALME-3M melanoma) was 15.3 µM, the TGI (MALME-3M melanoma) was 32.1 µM and the GI50 (MCF7 breast) was 2.21 µM. The TGI (MCF7 breast) was 12.4 µM, the GI50 (MDA-MB-231 breast) was 3.44 µM and the TGI (MDA-MB-231 breast) was greater than 100 µM. For the same molecule, the GI50 (MDA-MB-435) was 1.89 µM, the TGI (MDA-MB-435) was 4.57 µM and the GI50 (MOLT-4 leukemia) was 4.04 µM. The TGI (MOLT-4 leukemia) was greater than 100 µM, the GI50 (NCI-H226 lung) was 4.79 µM and the TGI (NCI-H226 lung) was greater than 100 µM. For the same molecule, the GI50 (NCI-H23 lung) was 4.67 µM, the TGI (NCI-H23 lung) was 22.7 µM and the GI50 (NCI-H460 lung) was 3.11 µM. It also gave a TGI (NCI-H460 lung) of 11.5 µM, a GI50 (NCI-H522 lung) of 3.33 µM and a TGI (NCI-H522 lung) of 13.5 µM. The GI50 (NCI/ADR-RES ovarian) was 3.09 µM, the TGI (NCI/ADR-RES ovarian) was 28.6 µM and the GI50 (OVCAR-3 ovarian) was 3.44 µM. The TGI (OVCAR-3 ovarian) was 10.9 µM, the GI50 (OVCAR-4 ovarian) was 7.91 µM and the TGI (OVCAR-4 ovarian) was 21 µM. It also gave a GI50 (OVCAR-5 ovarian) of 9.25 µM, a TGI (OVCAR-5 ovarian) of 31.6 µM and a GI50 (OVCAR-8 ovarian) of 3.82 µM. For the same molecule, the TGI (OVCAR-8 ovarian) was greater than 100 µM, the GI50 (PC-3 prostate) was 6.18 µM and the TGI (PC-3 prostate) was 32.9 µM. It also gave a GI50 (RPMI-8226 leukemia) of 3.39 µM, a TGI (RPMI-8226 leukemia) of 33.3 µM and a GI50 (RXF 393 renal) of 2.8 µM. It also gave a TGI (RXF 393 renal) of 11.4 µM, a GI50 (SF-268 CNS) of 3.46 µM and a TGI (SF-268 CNS) of 19.9 µM. For the same molecule, the GI50 (SF-295 CNS) was 3.17 µM, the TGI (SF-295 CNS) was 13.2 µM and the GI50 (SF-539 CNS) was 2.4 µM. It also gave a TGI (SF-539 CNS) of 8.46 µM, a GI50 (SK-MEL-2 melanoma) of 15.6 µM and a TGI (SK-MEL-2 melanoma) of 58.9 µM. For the same molecule, the GI50 (SK-MEL-28 melanoma) was 6.72 µM, the TGI (SK-MEL-28 melanoma) was greater than 100 µM and the GI50 (SK-MEL-5 melanoma) was 3.76 µM. For the same molecule, the TGI (SK-MEL-5 melanoma) was 14.9 µM, the GI50 (SK-OV-3 ovarian) was 6.14 µM and the TGI (SK-OV-3 ovarian) was greater than 100 µM. It also gave a GI50 (SN12C renal) of 3.26 µM, a TGI (SN12C renal) of 25.7 µM and a GI50 (SNB-19 CNS) of 5.1 µM. The TGI (SNB-19 CNS) was 27.3 µM, the GI50 (SNB-75 CNS) was 2.74 µM and the TGI (SNB-75 CNS) was 12.2 µM. For the same molecule, the GI50 (SR leukemia) was 2.56 µM, the TGI (SR leukemia) was 30.3 µM and the GI50 (SW-620 colon) was 2.79 µM. It also gave a TGI (SW-620 colon) of 11.5 µM, a GI50 (T-47D breast) of 3.01 µM and a TGI (T-47D breast) of 16 µM. The GI50 (TK-10 renal) was 4.4 µM, the TGI (TK-10 renal) was 24.1 µM and the GI50 (U251 CNS) was 3.41 µM. It also gave a TGI (U251 CNS) of 13.2 µM, a GI50 (UACC-257 melanoma) of 10.6 µM and a TGI (UACC-257 melanoma) of 30.9 µM. The GI50 (UACC-62 melanoma) was 3.83 µM, the TGI (UACC-62 melanoma) was 17.3 µM and the GI50 (UO-31 renal) was 3.63 µM. The TGI (UO-31 renal) was 17.4 µM.

Reference: PubChem BioAssay (NCI)
